# Reference: patent US20240342126A1, “HALLUCINOGEN-FATTY ACID COMBINATION” (Mindset Pharma Inc., priority 2021, published 2024)
# “Also recorded” adds a separate entry of the source.
# What was measured:
# [1] = Pharmacokinetics in plasma and CSF after i.n. or s.c. administration of 5-MeO-DMT formulations; conditions: Sprague-Dawley, rat, plasma, iv, 1 mg/kg
# C57BL/6J mice = assay: Mouse head twitch experiments; assay type: in vivo; conditions: for head twitch response of combination with linoleic acid vs test compound alone: equimolar dose of linoleic acid, SC; for effect on test compound-induced head twitches: M100907 0.5 mg/kg IP pretreatment
# Method: Male, C57BL/6J mice (body weight range 20-30 g) were dosed with the appropriate dose(s) of test compound, or combination of test compounds, and following pre-treatment, the animals were placed in individual observation chambers. Animals were visually assessed for the incidence head twitches continuously over a 1 hr period. Head twitches were defined as a rapid jerk of the head which was not elicited by an external tactile stimulus (Corne S J, Pickering R W (1967) Psychopharmacologia 11 (1): 65-78). Each head twitch was individually counted by a trained observer, and the data expressed as the mean±SEM of 4-10 mice per group. In addition to the total number of head twitches recorded over the 1 hr observation period, head twitches were also scored according to each specific 10 min time bin within the 1 hr observation period (i.e. 0-10 min, 10-20 min, 20-30 min, etc).
# Two types of experiments were conducted. In one, the effect of linoleic acid in combination with a test compound (psilocybin or 1-4) was studied. In these experiments, both test compounds, or saline control was injected subcutaneously (SC) 1 min prior to testing. […] In these experiments, M100907 (0.5 mg/kg IP) was injected 30 min prior to a single dose of test compound (i.e. psilocybin or I-4). […] 1 min following SC administration of the test compound, the mice were placed in the observation chambers for measurement of head twitch response.
# human 5-HT2A = human 5-HT2A (Homo sapiens, UniProt P28223); conditions: read-out: binding affinity 5-HT2A; cited from earlier work
# human 5-HT2A, sequence (P28223 whole entry): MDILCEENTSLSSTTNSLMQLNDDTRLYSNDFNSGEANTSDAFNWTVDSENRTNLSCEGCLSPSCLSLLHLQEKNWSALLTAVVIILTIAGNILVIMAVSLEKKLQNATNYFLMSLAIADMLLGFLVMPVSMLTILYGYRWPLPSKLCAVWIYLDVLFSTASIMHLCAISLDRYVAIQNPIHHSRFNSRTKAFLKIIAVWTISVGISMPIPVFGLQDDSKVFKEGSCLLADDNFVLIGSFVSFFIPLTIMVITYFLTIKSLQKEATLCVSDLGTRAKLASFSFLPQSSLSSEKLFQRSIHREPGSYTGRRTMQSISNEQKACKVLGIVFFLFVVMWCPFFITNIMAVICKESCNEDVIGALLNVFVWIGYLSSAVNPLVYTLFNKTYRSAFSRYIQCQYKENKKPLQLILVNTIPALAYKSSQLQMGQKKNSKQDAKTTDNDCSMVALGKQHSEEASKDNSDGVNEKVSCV
smiles,measurement,setting,value
"COc1ccc2[nH]cc(CCN(C)C)c2c1 [Compound 5-MeO-DMT, 5-methoxy-N,N-dimethyltryptamine]",AUC(0-inf),[1],35.3 ng·h/mL
"[2H]C([2H])([2H])N(C([2H])([2H])[2H])C([2H])([2H])C([2H])([2H])c1c[nH]c2cccc(O)c12 [Compound I-4, 3-(2-(bis(methyl-d3)amino)ethyl-1,1,2,2-d4)-1H-indol-4-ol]",head twitches over 1 hr (mean±SEM),C57BL/6J mice; 0.3 mg/kg SC + linoleic acid at […] SC,7.8±0.6
same,head twitches over 1 hr (mean±SEM),C57BL/6J mice; 0.3 mg/kg SC + vehicle,3.3±0.8
same,head twitch response of combination with linoleic acid vs test compound alone,C57BL/6J mice,more head twitches
same,head twitch response of combination with linoleic acid vs test compound alone,C57BL/6J mice; listed as 1-4,greater head twitch response
"COc1cccc([C@H](O)C2CCN(CCc3ccc(F)cc3)CC2)c1OC [Compound M100907, reference compound]",effect on test compound-induced head twitches,C57BL/6J mice; head twitches induced by I-4 6.2 mg/kg SC,completely blocked
same,effect on test compound-induced head twitches,C57BL/6J mice; head twitches induced by psilocybin 3 mg/kg SC,completely blocked
CCCCC/C=C\C/C=C\CCCCCCCC(=O)O [linoleic acid],head twitches over 1 hr (mean±SEM),C57BL/6J mice; linoleic acid alone 10 mg/kg SC,1.0±0.7
same,head twitches relative to vehicle,C57BL/6J mice; linoleic acid alone 0.1-10 mg/kg SC,did not induce head twitches to a significant degree; also recorded: no significant effect
"CN(C)CCc1c[nH]c2ccccc12 [DMT, N,N-dimethyltryptamine]",Ki,human 5-HT2A,237 nM
